Data published in ChEMBL document CHEMBL1201862, “PubChem BioAssay data set” (2004).
Calls of active or inactive are those of the source.

Tests used:
[1] = molecular target: T1, DNA repair and recombination protein RAD54-like (Homo sapiens, UniProt Q92698); experiment: inhibitors of human RAD54 branch migration, confirmation, biochemical, fluorescence, cherry-picked samples, dose series (AID 651657); assay type: functional
T1 sequence (Q92698 whole entry): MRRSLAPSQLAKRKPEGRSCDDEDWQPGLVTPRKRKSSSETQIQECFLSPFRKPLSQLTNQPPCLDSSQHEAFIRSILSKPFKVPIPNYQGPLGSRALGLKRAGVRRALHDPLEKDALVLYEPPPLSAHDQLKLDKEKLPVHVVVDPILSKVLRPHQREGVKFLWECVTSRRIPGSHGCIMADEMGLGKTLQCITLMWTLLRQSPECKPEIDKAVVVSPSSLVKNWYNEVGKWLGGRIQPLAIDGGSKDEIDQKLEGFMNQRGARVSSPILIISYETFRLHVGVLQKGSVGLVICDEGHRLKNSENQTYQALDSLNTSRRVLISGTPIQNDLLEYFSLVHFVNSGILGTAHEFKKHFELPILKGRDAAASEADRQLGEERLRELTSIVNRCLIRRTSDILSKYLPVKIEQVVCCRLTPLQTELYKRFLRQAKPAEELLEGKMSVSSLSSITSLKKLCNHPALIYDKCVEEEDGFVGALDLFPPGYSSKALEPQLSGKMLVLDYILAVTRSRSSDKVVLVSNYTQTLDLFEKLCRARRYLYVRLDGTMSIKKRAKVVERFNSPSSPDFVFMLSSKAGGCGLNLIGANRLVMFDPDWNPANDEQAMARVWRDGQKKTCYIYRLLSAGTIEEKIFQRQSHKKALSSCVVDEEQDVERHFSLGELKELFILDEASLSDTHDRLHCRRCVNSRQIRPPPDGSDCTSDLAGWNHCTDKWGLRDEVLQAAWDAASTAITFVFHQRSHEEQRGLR

[2] = molecular target: Dual specificity protein phosphatase 3 (Homo sapiens, UniProt P51452); experiment: VHR phosphatase inhibition, dose response, selectivity assay for STEP inhibitor project, biochemical (AID 602374); assay type: functional; conditions: read-out: IC50_Mean
Chain of Dual specificity protein phosphatase 3 (P51452 whole entry): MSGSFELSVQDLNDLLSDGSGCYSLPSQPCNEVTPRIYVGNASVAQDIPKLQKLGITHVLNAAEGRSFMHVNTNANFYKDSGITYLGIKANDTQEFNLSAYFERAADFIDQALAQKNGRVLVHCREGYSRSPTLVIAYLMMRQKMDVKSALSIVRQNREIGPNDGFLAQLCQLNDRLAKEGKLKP

[3] = molecular target: T2, Tyrosine-protein phosphatase non-receptor type 11 (Homo sapiens, UniProt Q06124); experiment: SHP2 phosphatase inhibition, dose response, selectivity assay for STEP inhibitor project, biochemical (AID 602367); assay type: functional; conditions: read-out: IC50_Mean
T2 sequence (Q06124 whole entry): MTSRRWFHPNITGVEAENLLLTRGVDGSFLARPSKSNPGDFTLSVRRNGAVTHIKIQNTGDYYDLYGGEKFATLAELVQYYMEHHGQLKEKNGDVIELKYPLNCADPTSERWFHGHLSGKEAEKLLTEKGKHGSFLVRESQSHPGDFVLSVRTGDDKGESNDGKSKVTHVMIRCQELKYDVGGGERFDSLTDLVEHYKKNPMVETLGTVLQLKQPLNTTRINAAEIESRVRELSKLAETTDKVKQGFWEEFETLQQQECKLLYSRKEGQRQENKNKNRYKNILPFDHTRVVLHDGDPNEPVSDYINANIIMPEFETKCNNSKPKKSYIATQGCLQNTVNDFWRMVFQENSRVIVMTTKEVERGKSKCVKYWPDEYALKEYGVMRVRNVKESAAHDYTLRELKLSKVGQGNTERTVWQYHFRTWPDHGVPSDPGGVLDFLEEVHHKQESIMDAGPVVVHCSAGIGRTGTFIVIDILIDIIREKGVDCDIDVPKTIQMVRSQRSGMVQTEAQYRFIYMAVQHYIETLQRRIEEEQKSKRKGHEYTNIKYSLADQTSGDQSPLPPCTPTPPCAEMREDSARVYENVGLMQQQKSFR

[4] = molecular target: T3, Tyrosine-protein phosphatase non-receptor type 5 (Homo sapiens, UniProt P54829); experiment: STEP phosphatase inhibitors, confirmation, biochemical, fluorescence intensity, uHTS hits (AID 602372); assay type: functional; conditions: read-out: IC50_Mean
T3 sequence (P54829 whole entry): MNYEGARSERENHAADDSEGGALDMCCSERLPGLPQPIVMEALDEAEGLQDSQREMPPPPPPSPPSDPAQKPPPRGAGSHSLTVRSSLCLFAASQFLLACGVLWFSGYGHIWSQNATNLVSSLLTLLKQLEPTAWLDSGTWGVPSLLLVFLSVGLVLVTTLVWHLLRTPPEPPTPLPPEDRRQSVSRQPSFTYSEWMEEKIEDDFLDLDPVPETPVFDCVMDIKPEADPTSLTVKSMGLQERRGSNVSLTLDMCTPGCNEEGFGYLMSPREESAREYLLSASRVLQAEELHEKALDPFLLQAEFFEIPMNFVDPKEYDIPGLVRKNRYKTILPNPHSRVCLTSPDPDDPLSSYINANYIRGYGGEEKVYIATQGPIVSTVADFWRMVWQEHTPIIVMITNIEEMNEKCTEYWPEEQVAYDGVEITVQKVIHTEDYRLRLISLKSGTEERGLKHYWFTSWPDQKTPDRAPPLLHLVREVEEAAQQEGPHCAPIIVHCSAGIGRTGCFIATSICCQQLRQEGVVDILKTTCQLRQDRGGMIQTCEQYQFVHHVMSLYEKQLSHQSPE

[5] = molecular target: T4, Ubiquitin-conjugating enzyme E2 N (Homo sapiens, UniProt P61088); assay type: functional;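 further: Dose-response confirmation in a TR-FRET assay detecting UBC13-driven polyubiquitin chain formation, inhibition measured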
T4 sequence (P61088 whole entry): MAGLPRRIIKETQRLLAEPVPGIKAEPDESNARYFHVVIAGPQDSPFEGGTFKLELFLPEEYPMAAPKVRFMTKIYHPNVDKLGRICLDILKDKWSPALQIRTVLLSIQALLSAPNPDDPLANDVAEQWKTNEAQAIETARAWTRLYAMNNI

[6] = molecular target: T5, DNA repair protein RAD52 homolog (Homo sapiens, UniProt P43351); assay type: functional, biochemical
T5 sequence (P43351 whole entry): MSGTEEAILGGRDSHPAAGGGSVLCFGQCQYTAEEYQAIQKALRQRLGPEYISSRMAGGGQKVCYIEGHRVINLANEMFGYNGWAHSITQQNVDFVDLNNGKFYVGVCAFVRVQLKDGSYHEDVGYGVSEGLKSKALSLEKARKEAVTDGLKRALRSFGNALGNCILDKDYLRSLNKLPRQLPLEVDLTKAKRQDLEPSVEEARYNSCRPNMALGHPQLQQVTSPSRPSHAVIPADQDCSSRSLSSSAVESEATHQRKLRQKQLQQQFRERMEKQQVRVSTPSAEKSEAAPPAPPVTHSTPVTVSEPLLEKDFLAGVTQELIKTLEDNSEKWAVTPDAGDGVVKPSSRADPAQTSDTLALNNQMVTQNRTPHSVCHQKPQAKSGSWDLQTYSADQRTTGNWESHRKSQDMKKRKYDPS

[7] = AlphaScreen signal interference compounds, dose response, artefact control for ARNT-TACC3 interaction inhibitor project, biochemical, luminescence, cherry-pick (AID 651705); assay type: functional;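 further: AlphaScreen bead proximity signal that flags compounds interfering with the detection technology; potency reflects signal decrease which marks the compound as an assay artifact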
[8] = molecular target: T6, Sentrin-specific protease 8 (Homo sapiens, UniProt Q96LD8); assay type: functional
T6 sequence (Q96LD8 whole entry): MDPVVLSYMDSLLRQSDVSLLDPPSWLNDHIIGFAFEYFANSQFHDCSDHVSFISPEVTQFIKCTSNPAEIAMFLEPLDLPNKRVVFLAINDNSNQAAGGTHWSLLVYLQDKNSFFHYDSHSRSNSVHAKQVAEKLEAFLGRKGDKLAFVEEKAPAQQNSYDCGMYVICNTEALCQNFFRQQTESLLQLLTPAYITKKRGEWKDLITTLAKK

[9] = molecular target: T6, Sentrin-specific protease 8; assay type: functional; remark: listed apart in the source
[10] = molecular target: Glucose-6-phosphate 1-dehydrogenase (Homo sapiens, UniProt P11413); experiment: human G6PD enzyme inhibitors, dose response, selectivity assay for P. falciparum G6PD inhibitor project, biochemical, fluorescence (AID 504792); assay type: functional
Chain of Glucose-6-phosphate 1-dehydrogenase (P11413 whole entry, the tested form may be a part): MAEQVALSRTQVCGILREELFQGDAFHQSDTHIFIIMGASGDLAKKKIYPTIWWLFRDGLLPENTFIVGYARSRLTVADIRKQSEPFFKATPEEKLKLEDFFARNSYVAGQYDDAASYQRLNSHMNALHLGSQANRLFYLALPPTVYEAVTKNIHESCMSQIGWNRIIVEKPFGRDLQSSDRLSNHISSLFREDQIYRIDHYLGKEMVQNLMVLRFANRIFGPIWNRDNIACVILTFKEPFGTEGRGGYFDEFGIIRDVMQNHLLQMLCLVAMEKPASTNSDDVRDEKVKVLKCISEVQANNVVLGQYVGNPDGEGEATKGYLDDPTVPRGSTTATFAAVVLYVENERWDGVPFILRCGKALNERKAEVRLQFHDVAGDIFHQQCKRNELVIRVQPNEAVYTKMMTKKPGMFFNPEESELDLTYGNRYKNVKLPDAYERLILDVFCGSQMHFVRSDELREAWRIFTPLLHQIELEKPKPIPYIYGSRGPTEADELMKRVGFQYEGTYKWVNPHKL

[11] = molecular target: T7, Hepatocyte nuclear factor 4-alpha (Homo sapiens, UniProt P41235); assay type: functional, cell-based;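 further: biochemical luminescence-based dose-response counterscreen measuring inhibition of HNF4 dimerization, run alongside a screen for blockers of ABHD5–perilipin-5 interaction; split luciferase complementation of HNF4 fusion proteins in cell lysate measuring dimerization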
T7 sequence (P41235 whole entry): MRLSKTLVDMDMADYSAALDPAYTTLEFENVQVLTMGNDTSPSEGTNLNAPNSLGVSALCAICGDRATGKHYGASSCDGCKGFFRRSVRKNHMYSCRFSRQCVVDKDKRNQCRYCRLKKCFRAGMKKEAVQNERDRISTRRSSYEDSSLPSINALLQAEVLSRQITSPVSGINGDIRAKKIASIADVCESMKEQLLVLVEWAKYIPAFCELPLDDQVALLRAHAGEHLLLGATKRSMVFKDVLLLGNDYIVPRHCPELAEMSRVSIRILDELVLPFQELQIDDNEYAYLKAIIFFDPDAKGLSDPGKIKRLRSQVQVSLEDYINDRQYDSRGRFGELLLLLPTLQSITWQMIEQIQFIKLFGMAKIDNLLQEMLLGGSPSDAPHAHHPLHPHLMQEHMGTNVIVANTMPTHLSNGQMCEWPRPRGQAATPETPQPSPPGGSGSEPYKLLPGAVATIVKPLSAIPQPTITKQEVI

Genome polyprotein = Genome polyprotein (dengue virus type 2, UniProt P29990); experiment: Dengue-2 NS5 methyltransferase inhibitors, primary screen, biochemical, confirmation dose response (AID 588689); assay type: functional
Chain of Genome polyprotein (P29990 2492-3391 limits assumed): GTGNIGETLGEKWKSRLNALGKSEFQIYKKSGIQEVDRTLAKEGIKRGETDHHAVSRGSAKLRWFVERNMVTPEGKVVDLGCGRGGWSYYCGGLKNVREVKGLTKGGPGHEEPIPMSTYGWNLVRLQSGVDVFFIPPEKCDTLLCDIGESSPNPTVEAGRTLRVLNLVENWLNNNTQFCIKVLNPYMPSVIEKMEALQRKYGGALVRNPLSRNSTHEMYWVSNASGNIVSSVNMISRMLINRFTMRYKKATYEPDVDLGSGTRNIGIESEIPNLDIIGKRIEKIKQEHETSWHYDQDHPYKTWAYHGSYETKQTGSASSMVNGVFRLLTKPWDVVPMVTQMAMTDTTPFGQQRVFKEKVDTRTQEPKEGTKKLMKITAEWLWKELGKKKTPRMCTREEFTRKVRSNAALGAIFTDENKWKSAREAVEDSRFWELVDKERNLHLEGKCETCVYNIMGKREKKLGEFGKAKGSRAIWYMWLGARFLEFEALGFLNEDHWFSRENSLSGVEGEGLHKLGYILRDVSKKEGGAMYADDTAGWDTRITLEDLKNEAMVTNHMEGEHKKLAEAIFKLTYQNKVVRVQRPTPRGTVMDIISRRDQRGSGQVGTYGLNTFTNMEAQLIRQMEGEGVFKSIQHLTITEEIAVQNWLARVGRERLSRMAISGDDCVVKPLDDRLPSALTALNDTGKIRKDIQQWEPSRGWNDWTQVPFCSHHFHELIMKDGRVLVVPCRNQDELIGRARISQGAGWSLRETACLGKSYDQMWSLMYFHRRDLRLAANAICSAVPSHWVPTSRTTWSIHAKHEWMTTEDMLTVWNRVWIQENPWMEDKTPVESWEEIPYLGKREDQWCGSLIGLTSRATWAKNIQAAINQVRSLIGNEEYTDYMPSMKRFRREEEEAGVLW

H9c2 = experiment: cells; assay type: functional, cell-based; conditions: Rattus norvegicus, H9c2, Myocardium;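 further: confirmatory concentration-response retest of ultra-high-throughput screening hits for modulation of myocardial damage; cell death induced by hydrogen peroxide oxidative stress; compound pretreatment for 60 min then peroxide exposure for 2 h; potency is for protecting the cells against peroxide damage rather than for killing them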
[12] = inhibitors of intracellular T. cruzi replication, confirmation, NIH3T3 host cells, beta-gal luminescence (AID 2044); assay type: functional, cell-based;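 further: intracellular parasites grown in NIH/3T3 mouse fibroblasts as host cells; luminescent beta-galactosidase reporter signal from transgenic T. cruzi replicating inside host cells; inhibitors lower the luminescence signal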
[13] = cytotoxicity toward NIH3T3 fibroblasts, dose response, counter-screen, cell-based, ATP luminescence, mouse fibroblasts (AID 2010); assay type: functional;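 further: cells exposed to compound for about 90 hours before reading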
cells [14] = assay type: functional, cell-based
cells [15] = assay type: functional, cell-based; remark: listed apart in the source

With `CCCCN(CC)CCCN=C(S)Nc1ccc2nc(N3CCN(CC)CC3)cc(C)c2c1` the AC50 [1] was 25.7 µM (active).
With `O=C(C1=C(O)C(=O)N(CCCO)C1c1ccc(Br)cc1)c1ccc(Br)cc1` (centres undefined) the IC50 [2] was 73.4 µM (inactive), the IC50 [3] was 58.9 µM (inactive) and the IC50 [4] was 36.2 µM (inactive).
In the case of `CCOC(=O)c1c(NC(=O)c2ccc(S(=O)(=O)N3CCOCC3)cc2)sc2c1CCN(C(C)C)C2`, the AC50 [1] is reported as 8.89 µM (active).
For `CCN(CC)Cc1cc2[nH]c3c4ccc(Cl)cc4ncc3c2cc1OC`, the IC50 [5] was > 20 µM (inactive), the AC50 [6] was 3.1 µM (active) and the AC50 [1] was 14.6 µM (active).
For `OCCN1CCN(C(=S)c2ccc(Cl)c(Cl)c2)CC1`, the AC50 [7] was 132 µM (active), the IC50 [8] was 18.4 µM (active) and the IC50 [2] was 0.339 µM (active). The IC50 [9] was 10.8 µM (active), the IC50 [3] was 1.99 µM (active) and the IC50 [4] was 8.95 µM (active). For the same compound, the IC50 [10] was > 80 µM (inactive).
With `O=C1NC(=S)NC(=O)C12C(c1ccccc1)NC(=S)NC2c1ccccc1` (centres undefined) the IC50 [11] was 5.81 µM (active) and the IC50 (Genome polyprotein) was 69.4 µM (active).
For `CC(C)[C@H](NC(=O)c1ccccc1Cl)C(=O)Nc1nc(-c2ccccn2)cs1`, the AC50 [7] was 73.8 µM (active), the IC50 (H9c2) was 8.83 µM (active) and the EC50 [12] was 2.23 µM (active). The EC50 [13] was 11.7 µM (active), the EC50 (cells [14]) was 24 µM (active) and the EC50 (cells [15]) was > 350 µM (not active).
For `COc1ccc(C(C(=O)NC2CCCCC2)n2c(=O)c(-c3ccco3)nc3ccccc32)cc1` (centres undefined), the IC50 [11] was 1.75 µM (active).
